From paper doi:10.1101/2025.04.25.650653, “Hierarchical small molecule inhibition of MYST acetyltransferases” (bioRxiv, 2025)
Several values for one entry are separate records, joined by “and”; a condition that tells them apart may be missing. Identical values can stand only once.

Test system: histone modifications in MCF-7 cells
Experiment: Histone modification analysis by bottom-up LC-MS/MS;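 as to Ratio, H2AV 1 19 K11ac*: inhibitor concentrations in µM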;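 as to Ratio, H2AX 4 11 K5acK9ac: inhibitor concentrations in µM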;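 as to Ratio, H2AX 4 11 K9ac: inhibitor concentrations in µM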;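 as to Ratio, H2AZ 1 19 K15ac: inhibitor concentrations in µM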;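 as to Ratio, H2AZ 1 19 K4ac: inhibitor concentrations in µM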;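 as to Ratio, H2AZ 1 19 K4acK11ac: inhibitor concentrations in µM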
Assay type: cell-based
Text: In this approach. […] Histones are then extracted from cell pellets and chemically derivatized with propionic anhydride, digested with trypsin, subjected to a second round of propionylation, and analyzed by LC-MS/MS. Measuring the relative intensity of modified versus unmodified forms of individual histone peptides enables simultaneous monitoring of multiple potential biomarkers of MYST inhibition. To minimize false positives, we focused on abundant and reproducible modifications (average stoichiometry of greater than 1% across triplicate samples, standard deviation less than or equal to the average measurement). To account for potential histone modification crosstalk, changes in both acetylated and methylated peptides were evaluated. 38 modified peptides passed this reproducible detection threshold including several established KAT biomarkers[41] including H3K9Ac (KAT2A/B), H3K18Ac (KAT3A/B), H3K14Ac (KAT7), H3K23Ac (KAT6A/B), H4K16Ac (KAT8), and H2A.ZK4/K7Ac (KAT5; Fig. 4B).
Histone modification analysis
MCF-7 cells were cultured at 37 °C under 5% CO2 in EMEM (Quality Biological, 112-016-101) with 0.01 mg/mL human recombinant insulin (Sigma Aldrich, 91077C), 2 mM L-glutamine (Quality Biological, 118- […]
human recombinant insulin.
1119, WM-3835). Following 24 h inhibitor treatment, cells were washed with ice-cold 1× PBS and scraped in 150 µL of Nuclear Isolation Buffer (NIB) containing 0.1% NP-40 for histone extraction using a modified protocol from the Garcia laboratory. 9 Briefly, cell suspensions were incubated on ice for 5 minutes, and […]
nuclei were pelleted by centrifugation (600 rcf, 4°C, 5 min). Pelleted nuclei were washed twice with 150 μL of detergent-free NIB buffer, followed by centrifugation (600 rcf, 4°C, 5 min) to remove all detergent.
Nuclei were then resuspended in 400 μL of 0.4 N H₂SO₄ and rotated at 4°C overnight for acid extraction of histones. The following day, samples were centrifuged (11,000 rcf, 4°C, 10 min) and the histone-containing supernatant was transferred to a fresh tube. Trichloroacetic acid (100% TCA) was added to achieve a final concentration of 20% (v/v), tubes were inverted once to mix, and histone precipitation was performed on ice for at least 3 hours or overnight at 4°C. Precipitated histones were collected by centrifugation (11,000 rcf, 4°C, 10 min) and the supernatant carefully removed, leaving a visible film of histones on the tube wall or bottom. Histone pellets were subjected to sequential washes with 1 mL of ice-cold acidified acetone (0.1% 12 N HCl) followed by 1 mL of 100% ice-cold acetone, with centrifugation (11,000 rcf, 4°C, 5 min) after each wash. Samples were air-dried at room temperature, resuspended in 40 µL of ddH₂O, and protein […]
analysis, 1-2 µg of purified histones were loaded per lane and processed according to the general immunoblotting protocol described in General Materials and Methods.
Analysis of histone modifications by LC-MS/MS
Preparation of histone samples for LC-MS/MS was performed analogously to the procedure for immunoblotting above, with the following modifications. MCF7 cells (4.2 × 106) were seeded in 15 cm dishes and treated with PF-9363 or vehicle. Experiments were performed in triplicate. Following treatment and PBS washing, cells were scraped and collected in 15 mL falcon tubes, pelleted (500 rcf, 4°C, 5 min), resuspended in 1 mL cold PBS, transferred to microcentrifuge tubes, and pelleted again before flash-freezing in liquid nitrogen for storage at -80°C. For extraction, cell pellets (~100 μL) were resuspended in NIB buffer at a 1:10 ratio, and cells were lysed with NIB buffer containing 0.2% NP-40 for 8 minutes on ice. Nuclei were pelleted at 1,000 rcf for 8 minutes and washed three times with 500 μL detergent-free NIB buffer. Histones were extracted using 800 μL of 0.2 M H₂SO₄, and after centrifugation (3,400 rcf, 4°C, 10

[1] = KAT marker KAT5, PF-9363 0.1, Replicates 1-3
[2] = KAT marker KAT5, PF-9363 1, Replicates 1-3
[3] = KAT marker KAT5, PF-9363 10, Replicates 1-3
[4] = KAT marker KAT5, PF-9363 30, Replicates 1-3
[5] = KAT marker KAT5, PF-9363 (0.1 mM)
[6] = KAT marker KAT5, PF-9363 (30 mM)
[7] = KAT marker KAT5, average ratio 0.1 v 30

With `COc1cccc(OC)c1S(=O)(=O)Nc1noc2cc(Cn3cccn3)cc(OC)c12` [PF-9363] the “Ratio, H2AV_1_19 K11ac*” value [1] was 0.007595 and 0.00642 and 0.01986, the “Ratio, H2AX_4_11 K5acK9ac” value [1] was 0.05241 and 0.03954 and 0.03977 and the “Ratio, H2AX_4_11 K9ac” value [1] was 0.01011 and 0.01143 and 0.00727. The “Ratio, H2AZ_1_19 K4ac” value [1] was 0.0934 and 0.07612 and 0.06178, the “Ratio, H2AZ_1_19 K4acK11ac” value [1] was 0.01166 and 0.008639 and 0.01028 and the “Ratio, H2AZ_1_19 K15ac” value [1] was 0.004599 and 0.02439 and 0.01482. The “Ratio, H2AV_1_19 K11ac*” value [2] was 0.004474 and 0.01793 and 0.01146, the “Ratio, H2AX_4_11 K5acK9ac” value [2] was 0.01434 and 0.002712 and 0.0302 and the “Ratio, H2AX_4_11 K9ac” value [2] was 0.009767 and 0.01635 and 0.01121. For the same molecule, the “Ratio, H2AZ_1_19 K4ac” value [2] was 0.09212 and 0.06375 and 0.07053, the “Ratio, H2AZ_1_19 K4acK11ac” value [2] was 0.007173 and 0.01149 and 0.00767 and the “Ratio, H2AZ_1_19 K15ac” value [2] was 0.003136 and 0.01439 and 0.00489. For the same molecule, the “Ratio, H2AV_1_19 K11ac*” value [3] was 0.01122 and 0 and 0.008954, the “Ratio, H2AX_4_11 K5acK9ac” value [3] was 0.00945 and 0.08577 and 0.02854 and the “Ratio, H2AX_4_11 K9ac” value [3] was 0.01063 and 0.01009 and 0.01309. For the same molecule, the “Ratio, H2AZ_1_19 K4ac” value [3] was 0.08614 and 0 and 0.04884, the “Ratio, H2AZ_1_19 K4acK11ac” value [3] was 0.008371 and 0 and 0.01009 and the “Ratio, H2AZ_1_19 K15ac” value [3] was 0.007824 and 0 and 0.01105. The “Ratio, H2AV_1_19 K11ac*” value [4] was 0.005769 and 0.002136 and 0.002357, the “Ratio, H2AX_4_11 K5acK9ac” value [4] was 0.04001 and 0.01893 and 0.03445 and the “Ratio, H2AX_4_11 K9ac” value [4] was 0.01286 and 0.00924 and 0.00685. The “Ratio, H2AZ_1_19 K4ac” value [4] was 0 and 0.02795 and 0.04699, the “Ratio, H2AZ_1_19 K4acK11ac” value [4] was 0 (2×) and 0.004492 and the “Ratio, H2AZ_1_19 K15ac” value [4] was 0 and 0.01504 and 0.003466. The “Average ratio, H2AV_1_19 K11ac*” value [5] was 0.0113, the “Average ratio, H2AX_4_11 K5acK9ac” value [5] was 0.0439 and the “Average ratio, H2AX_4_11 K9ac” value [5] was 0.0096. For the same molecule, the “Average ratio, H2AZ_1_19 K4ac” value [5] was 0.0771, the “Average ratio, H2AZ_1_19 K4acK11ac” value [5] was 0.0102 and the “Average ratio, H2AZ_1_19 K15ac” value [5] was 0.0146. The “Average ratio, H2AV_1_19 K11ac*” value [6] was 0.0034, the “Average ratio, H2AX_4_11 K5acK9ac” value [6] was 0.0311 and the “Average ratio, H2AX_4_11 K9ac” value [6] was 0.0097. For the same molecule, the “Average ratio, H2AZ_1_19 K4ac” value [6] was 0.0250, the “Average ratio, H2AZ_1_19 K4acK11ac” value [6] was 0.0015 and the “Average ratio, H2AZ_1_19 K15ac” value [6] was 0.0062. The “Fold-change 0.1 v 30, H2AV_1_19 K11ac*” value [7] was 3.30, the “Fold-change 0.1 v 30, H2AX_4_11 K5acK9ac” value [7] was 1.41 and the “Fold-change 0.1 v 30, H2AX_4_11 K9ac” value [7] was 1.00. The “Fold-change 0.1 v 30, H2AZ_1_19 K4ac” value [7] was 3.09, the “Fold-change 0.1 v 30, H2AZ_1_19 K4acK11ac” value [7] was 6.81 and the “Fold-change 0.1 v 30, H2AZ_1_19 K15ac” value [7] was 2.37. For the same molecule, the “Fold-change 0.1 v 30, H3_18_26 unmod” value (KQLATKAAR(H3_18_26), PF-9363 0.1 v 30) was 0.96, the “Average ratio, H3_18_26 unmod” value (KQLATKAAR(H3_18_26), PF-9363 (0.1 mM)) was 0.9434 and the “Average ratio, H3_18_26 unmod” value (KQLATKAAR(H3_18_26), PF-9363 (30 mM)) was 0.9781. The “Ratio, H3_73_83 K79me1” value (PF-9363 0.1, Replicates 1-3) was 0.07799 and 0.09275 and 0.09546, the “Ratio, H3_73_83 K79me2” value (PF-9363 0.1, Replicates 1-3) was 0.05292 and 0.1051 and 0.06234 and the “Ratio, H3_73_83 unmod” value (PF-9363 0.1, Replicates 1-3) was 0.8672 and 0.8006 and 0.8413. The “Ratio, H4_4_17 K12acK16ac” value (PF-9363 0.1, Replicates 1-3) was 0.009379 and 0.008608 and 0.009722, the “Ratio, H4_4_17 unmod” value (PF-9363 0.1, Replicates 1-3) was 0.6357 and 0.6297 and 0.6309 and the “Ratio, H4_20_23 K20me1” value (PF-9363 0.1, Replicates 1-3) was 0.02877 and 0.03606 and 0.02758. The “Ratio, H4_20_23 unmod” value (PF-9363 0.1, Replicates 1-3) was 0.03039 and 0.02967 and 0.02773, the “Fold-change 0.1 v 30, H2A1_12_17 unmod (AKAKTR)” value (PF-9363 0.1 v 30, peptide H2A1_12_17 unmod, MCF-7) was 0.98 and the “Fold-change 0.1 v 30, H2A3_12_17 K15me1 (AKAKSR)” value (PF-9363 0.1 v 30, peptide H2A3_12_17 K15me1, MCF-7) was 0.96. The “Ratio, H2A1_1_11 K5ac” value (PF-9363 1, Replicates 1-3) was 0.9077 and 0.9494 and 0.9116, the “Ratio, H2A1_4_11 K5ac” value (PF-9363 1, Replicates 1-3) was 0.06275 and 0.03204 and 0.05607 and the “Ratio, H2A1_4_11 K9ac” value (PF-9363 1, Replicates 1-3) was 0.0308 and 0.06179 and 0.03113.
